Laboratory results: patent US11090304B2 (Amgen Inc., priority 2018, dated 2021)
pIC50: −log10 of the molar value.

These compounds were tested against GDP-bound KRAS protein (aa 1-169), containing both G12C and C118A amino acid substitutions (Homo sapiens, UniProt P01116, C118A/G12C) (assay: Coupled nucleotide exchange assay (SOS-mediated, AlphaScreen)). Settings: not given.
Format: biochemical

Sequence of GDP-bound KRAS protein (aa 1-169), containing both G12C and C118A amino acid substitutions (P01116 1-169 isoform P01116-2 G12C/C118A): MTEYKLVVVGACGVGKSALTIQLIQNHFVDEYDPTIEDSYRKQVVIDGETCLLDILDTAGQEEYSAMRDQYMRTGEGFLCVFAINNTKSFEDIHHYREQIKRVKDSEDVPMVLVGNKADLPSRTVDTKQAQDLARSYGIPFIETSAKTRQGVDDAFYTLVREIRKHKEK

Compound	Coupled exchange IC50 (5 min)
C=CC(=O)N1[C@@H]2C[C@H]1CN(c1nc(=O)n(-c3c(C)ccnc3C(C)C)c3nc(-c4ccccc4F)c(Cl)cc13)C2 (atropisomer, axis not shown; (M)) [Example 135, (M)-6-Chloro-7-(2-fluorophenyl)-1-(4-methyl-2-(2-propanyl)-3-pyridinyl)-4-((1R,5S)-6-(2-propenoyl)-3,6-diazabicyclo[3.1.1]heptan-3-yl)pyrido[2,3-d]pyrimidin-2(1H)-one]	3.32 | nda μM

Same assay, conditions: 5 min compound pre-incubation

Coupled exchange IC50 (5 min)	Compound
2.94 | nda μM	C=CC(=O)N1CCN(c2nc(=O)n(-c3ccccc3C(C)C)c3nc(Cl)c(Cl)cc23)[C@@H](C)C1 (atropisomer, axis not shown; (M)) [Example 61-1-1, (M)-6,7-Dichloro-4-((2S)-2-methyl-4-(2-propenoyl)-1-piperazinyl)-1-(2-(2-propanyl)phenyl)pyrido[2,3-d]pyrimidin-2(1H)-one]
2.37 | nda μM	C=CC(=O)N1CCN(c2nc(=O)n(-c3c(C)ccnc3C(C)C)c3nc(Cl)c(Cl)cc23)[C@@H](C)C1 (atropisomer, axis not shown; (M)) [Example 61-2-2, (M)-6,7-dichloro-1-(4-methyl-2-(2-propanyl)-3-pyridinyl)-4-((2S)-2-methyl-4-(2-propenoyl)-1-piperazinyl)pyrido[2,3-d]pyrimidin-2(1H)-one]
1.31 | nda μM	C=CC(=O)N1CCN(c2nc(=O)n(-c3c(C)ccnc3C(C)C)c3nc(-c4nc(N)ccc4F)c(F)cc23)[C@@H](C)C1 (atropisomer, axis not shown; (M)) [Example 65-2, (M)-7-(6-amino-3-fluoro-2-pyridinyl)-6-fluoro-1-(4-methyl-2-(2-propanyl)-3-pyridinyl)-4-((2S)-2-methyl-4-(2-propenoyl)-1-piperazinyl)pyrido[2,3-d]pyrimidin-2(1H)-one]
1.17 | nda μM	C=CC(=O)N1CCN(c2nc(=O)n(-c3c(C)ccnc3C(C)C)c3nc(-c4cc(F)ccc4O)c(F)cc23)C(C)C1 (atropisomer, axis not shown; (M)) [Example 72-1, (M)-6-Fluoro-7-(5-fluoro-2-hydroxyphenyl)-1-(4-methyl-2-(2-propanyl)-3-pyridinyl)-4-((2S)-2-methyl-4-(2-propenoyl)-1-piperazinyl)pyrido[2,3-d]pyrimidin-2(1H)-one]
3.29 | nda μM	C=CC(=O)N1CCN(c2nc(=O)n(-c3c(C)ccnc3C(C)C)c3nc(-c4cccc(F)c4O)c(F)cc23)[C@@H](C)C1 (atropisomer, axis not shown; (M)) [Example 72-3, (M)-6-fluoro-7-(3-fluoro-2-hydroxyphenyl)-1-(4-methyl-2-(2-propanyl)-3-pyridinyl)-4-((2S)-2-methyl-4-(2-propenoyl)-4-piperazinyl)pyrido[2,3-d]pyrimidin-2(1H)-one]
2.91 | nda μM	C=CC(=O)N1CCN(c2nc(=O)n(-c3c(C)ccnc3C(C)C)c3nc(-c4cccc(O)c4F)c(F)cc23)[C@@H](C)C1 (atropisomer, axis not shown; (M)) [Example 72-5, (M)-6-fluoro-7-(2-fluoro-3-hydroxyphenyl)-1-(4-methyl-2-(2-propanyl)-3-pyridinyl)-4-((2S)-2-methyl-4-(2-propenoyl)-1-piperazinyl)pyrido[2,3-d]pyrimidin-2(1H)-one]
4.51 | nda μM	C=CC(=O)N1C[C@H](C)N(c2nc(=O)n(-c3c(C)ccnc3C(C)C)c3nc(Cl)c(F)cc23)[C@@H](C)C1 (atropisomer, axis not shown; (M)) [Example 72-12, (M)-7-chloro-4-((2S,6S)-2,6-dimethyl-4-(2-propenoyl)-1-piperazinyl)-6-fluoro-1-(4-methyl-2-(2-propanyl)-3-pyridinyl)pyrido[2,3-d]pyrimidin-2(1H)-one]
0.625 | nda μM	C=CC(=O)N1C[C@@H](C)N(c2nc(=O)n(-c3c(C)ccnc3C(C)C)c3nc(Cl)c(Cl)cc23)[C@@H](C)C1 (atropisomer, axis not shown; (M)) [Example 73-11, (M)-6,7-dichloro-4-(cis-2,6-dimethyl-4-(2-propenoyl)-1-piperazinyl)-1-(4-methyl-2-(2-propanyl)-3-pyridinyl)pyrido[2,3-d]pyrimidin-2(1H)-one]
0.711 | nda μM	C=CC(=O)N1C[C@H](C)N(c2nc(=O)n(-c3c(C)ccnc3C(C)C)c3nc(Cl)c(Cl)cc23)[C@@H](C)C1 (atropisomer, axis not shown; (M)) [Example 73-14, (M)-6,7-dichloro-4-((2S,6S)-2,6-dimethyl-4-(2-propenoyl)-1-piperazinyl)-1-(4-methyl-2-(2-propanyl)-3-pyridinyl)pyrido[2,3-d]pyrimidin-2(1H)-one]
5.54 | nda μM	C=CC(=O)N1C[C@@H](C)N(c2nc(=O)n(-c3c(C)ccnc3C(C)C)c3nc(-c4c(N)cccc4F)c(Cl)cc23)[C@H](C)C1 (atropisomer, axis not shown; (M)) [Example 73-18, (M)-7-(2-amino-6-fluorophenyl)-6-chloro-4-((2R,6R)-2,6-dimethyl-4-(2-propenoyl)-1-piperazinyl)-1-(4-methyl-2-(2-propanyl)-3-pyridinyl)pyrido[2,3-d]pyrimidin-2(1H)-one]
7.55 | nda μM	C=CC(=O)N1C[C@@H](C)N(c2nc(=O)n(-c3c(C)ccnc3C(C)C)c3nc(-c4c(O)cccc4F)c(Cl)cc23)[C@H](C)C1 (atropisomer, axis not shown; (M)) [Example 73-19, (M)-6-chloro-4-((2R,6R)-2,6-dimethyl-4-(2-propenoyl)-1-piperazinyl)-7-(2-fluoro-6-hydroxyphenyl)-1-(4-methyl-2-(2-propanyl)-3-pyridinyl)pyrido[2,3-d]pyrimidin-2(1H)-one]
20.6 | nda μM	C=CC(=O)N1CCN(c2nc(=O)n(-c3ccccc3C(C)C)c3nc(Cl)c(Cl)cc23)[C@@H](C)C1 (atropisomer, axis not shown; (P)) [Example 61-1-2, (P)-6,7-dichloro-4-((2S)-2-methyl-4-(2-propenoyl)-1-piperazinyl)-1-(2-(2-propanyl)phenyl)pyrido[2,3-d]pyrimidin-2(1H)-one]
8.24 | nda μM	C=CC(=O)N1CCN(c2nc(=O)n(-c3c(C)ccnc3C(C)C)c3nc(Cl)c(Cl)cc23)[C@@H](C)C1 (atropisomer, axis not shown; (P)) [Example 61-2-1, (P)-6,7-dichloro-1-(4-methyl-2-(2-propanyl)-3-pyridinyl)-4-((2S)-2 methyl-4-(2-propenoyl)-1-piperazinyl)pyrido[2,3-d]pyrimidin-2(1H)-one]
2.71 | nda μM	C=CC(=O)N1CCN(c2nc(=O)n(-c3c(CO)ccnc3C(C)C)c3nc(-c4ccccc4F)c(Cl)cc23)C(C)C1 (atropisomer, axis not shown; (P)) [Example 84-1, (P)-6-chloro-7-(2-fluorophenyl)-1-(4-(hydroxymethyl)-2-(2-propanyl)-3-pyridinyl)-4-((2S)-2-methyl-4-(2-propenoyl)-1-piperazinyl)pyrido[2,3-d]pyrimidin-2(1H)-one]
28.6 | nda μM	C=CC(=O)N1CCC(Oc2nc(=O)n(-c3c(C)ccnc3C(C)C)c3nc(-c4ccccc4F)c(Cl)cc23)C1 (racemic) [Example 79-2, (M)-6-chloro-7-(2-fluorophenyl)-1-(4-methyl-2-(2-propanyl)-3-pyridinyl)-4-((1-(2-propenoyl)-3-pyrrolidinyl)oxy)pyrido[2,3-d]pyrimidin-2(1H)-one]
1.21 | nda μM	C=CC(=O)N1CCN(c2nc(=O)n(-c3ccccc3C3CCC3)c3nc(-c4c(O)cccc4F)c(Cl)cc23)[C@@H](C)C1 (single isomer, unassigned) [Example 54-10-1]
1.84 | nda μM	C=CC(=O)N1CCN(c2nc(=O)n(-c3ccccc3C(C)C)c3nc(-c4cc(OC(F)F)ccc4F)c(Cl)cc23)[C@@H](C)C1 (single isomer, unassigned) [Example 54-51-2]
1.24 | nda μM	C=CC(=O)N1CCN(c2nc(=O)n(-c3ccccc3S(C)(=O)=O)c3nc(-c4c(O)cccc4F)c(Cl)cc23)[C@@H](C)C1 (single isomer, unassigned) [Example 54-56-2]
10.6 | nda μM	C=CC(=O)N1CCN(c2nc(=O)n(-c3ccccc3C(C)C)c3nc(C4=CCCCC4)c(Cl)cc23)[C@@H](C)C1 (single isomer, unassigned) [Example 54-75-2]

Same assay, conditions: read-out: Coupled exchange IC50 (5 min); 5 min compound pre-incubation

pIC50	Compound
3.93	C=CC(=O)N1CC(Nc2nc(=O)n(-c3c(C)ccnc3C(C)C)c3nc(-c4ccccc4F)c(Cl)cc23)C1 (atropisomer, axis not shown; (M)) [Example 76-1, (M)-6-Chloro-7-(2-fluorophenyl)-1-(4-methyl-2-(2-propanyl)-3-pyridinyl)-4-((1-(2-propenoyl)-3-azetidinyl)amino)pyrido[2,3-d]pyrimidin-2(1H)-one]
5.48	C=CC(=O)N1CC(Oc2nc(=O)n(-c3c(C)ccnc3C(C)C)c3nc(-c4ccccc4F)c(Cl)cc23)C1 (atropisomer, axis not shown; (M)) [Example 79-1, (M)-6-Chloro-7-(2-fluorophenyl)-1-(4-methyl-2-(2-propanyl)-3-pyridinyl)-4-((1-(2-propenoyl)-3-azetidinyl)oxy)pyrido[2,3-d]pyrimidin-2(1H)-one]
5.61	C=CC(=O)N1CCN(c2nc(=O)n(-c3c(C)cccc3C(C)C)c3nc(Cl)c(Cl)cc23)[C@@H](C)C1 (atropisomer, axis not shown; (M)) [Example 112, (M)-6,7-Dichloro-1-(2-methyl-6-(2-propanyl)phenyl)-4-((2S)-2-methyl-4-(2-propenoyl)-1-piperazinyl)pyrido[2,3-d]pyrimidin-2(1H)-one]
6.26	C=CC(=O)N1CCN(c2nc(=O)n(-c3c(C(C)C)ncc(O)c3C)c3nc(-c4ccccc4F)c(Cl)cc23)[C@@H](C)C1 (atropisomer, axis not shown; (P)) [Example 83-1, (P)-6-Chloro-7-(2-fluorophenyl)-1-(5-hydroxy-4-methyl-2-(2-propanyl)-3-pyridinyl)-4-((2S)-2-methyl-4-(2-propenoyl)-1-piperaninyl)pyrido[2,3-d]pyrimidin-2(1H)-one]
